1 compound from patent US10106577B2, “Agonists of neurotrophin receptors and their use as medicaments” (BIONURE FARMA, S.L., priority 2010, dated 2018) can be followed below.

For one assay, the system named is TNFα. Put plainly: Neuroinflammation in vitro model, organotypic cerebellar culture challenged with LPS, ELISA. Format: cell-based, mice. As to conditions: G79 100 ng/ml pre-treatment; LPS 15 μg/ml. An excerpt:
(§1) Neonates mice (day 8 after birth (P8)) were decapitated after anaesthetic IP injection and whole brains were removed aseptically. Cerebellum was separated from the rest of the brain and placed on a metal vibratome plate. Once the cerebellum was attached to the surface of the plate, 400 μm sagittal sections were cut using the vibratome. The slices were then transferred with a plastic Pasteur pipette to a cell culture plate containing an organotypic culture medium (5% CO2 in 50% basal medium with Earle's salt, 25% Hank's buffered salt solution, 25% inactivated horse serum, 5 mg/ml glucose, 0.25 mM L-glutamine and 25 μg/ml penicillin/streptomycin). After separating and isolating each slice, the cerebellar slices were then transferred to 6-well plates (3 slices for each well) containing a 30 mm culture plate insert with 0.4 μm pores (Millipore) and 1 ml full culture medium, pre-conditioned by incubation for at least 2 hours at 37° C., and 5% CO2 was added into each well below the insert. The six-well plates were kept at 37° C. and under 5% CO2, and half the medium was replaced every 2 days. All the experiments were performed after 1 week of culture in such conditions.
(§2) After one week of organotypic cerebellum culture, the medium of each well was replaced with fresh medium and G79 (100 ng/ml) or placebo (physiologic solution) was added to the wells and kept in incubation for 1 hour. […]
A general note: ELISA stands for enzyme-linked immunosorbent assay.

The next assay deals with IL-1β. The description is as above. In kind it is cell-based, mice. As to conditions: G79 100 ng/ml pre-treatment; LPS 15 μg/ml.
Description: as §1, §2

A further assay relates to STAT-1. Description: Luminex signalling assay in SH-SY5Y. Format: cell-based, human. The following applies: G79 100 ng/ml and 20 μg/ml, BDNF 20 ng/ml; 30 min, 1 h, 2 h, 6 h. An excerpt:
(§3) The human neuroblastoma cell line SH-SY5Y was used to perform Luminex signalling assays using the 10-Plex MAPK/SAPK Signaling Kit-Phosphoprotein (Millipore). This cell line expresses the TrkB receptor and the MAPK/SAPK signalling pathway is typically activated by the tyrosinkinase receptors. The phosphoprotein antibodies included into the kit are the following: ERK/MAP kinase (Thr185/Tyr187); STAT-1 (Tyr701); JNK (Thr183/Tyr185); MEK-1 (Ser212); ATF-2 (Thr69/71); p53 (Ser15); HSP27 (Ser78); c-Jun (Ser73); p38 (Thr180/Tyr182), p70 S6 kinase (Thr412); IkBα (Ser32) (purchased from Millipore).
(§4) The cells were propagated and then seeded into 24-well plates (30.000 cell/well). After 24 hours, the cells were treated with two different concentrations of NGF-receptor agonist G79: 100 ng/ml and 20 μg/ml. After adding G79 into the medium, the cells were collected in the lysis buffer of the kit at the following time points: 30 min, 1 h, 2 h, and 6 h. The assay was performed in this way to assess both time and dose effects comparing the treated samples with the untreated cells used as negative controls (unstimulated SH-SY5Y cells). BDNF was used as positive control at the concentration 20 ng/ml, which is the best working concentration known in literature. In the Luminex plate, each sample was added into a well in duplicate. After adding all the samples, the specific positive and negative controls of phosphorilation, included in the Luminex kit, were added. The assay buffer was also added in duplicate, as a background controls.
(§5) In the circles are the activated factors, while in the grey circles are the tested factors. Its effects of the SY-SY5Y cell line in the phosphorilation of several pathways were assessed using xMAP assay from Luminex. […] The levels of activation are expressed as Median Fluorescence Intensity (MFI).

A further assay has as its system HSP-27. Description: Luminex signalling assay in SH-SY5Y. As to conditions: G79 100 ng/ml and 20 μg/ml, BDNF 20 ng/ml; 30 min, 1 h, 2 h, 6 h. In kind it is cell-based, human.
Description: as §3, §4, §5

The next assay relates to ATF-2. Put plainly: Luminex signalling assay in SH-SY5Y. In kind it is cell-based, human. The following applies: G79 100 ng/ml and 20 μg/ml, BDNF 20 ng/ml; 30 min, 1 h, 2 h, 6 h.
Description: as §3, §4, §5

The test system of a further assay is JNK. Put plainly: Luminex signalling assay in SH-SY5Y. Format: cell-based, human. The following applies: G79 100 ng/ml and 20 μg/ml, BDNF 20 ng/ml; 30 min, 1 h, 2 h, 6 h.
Description: as §3, §4, §5

The next assay concerns iNOS. Put plainly: Neuroinflammation in vitro model, organotypic cerebellar culture challenged with LPS, real-time PCR. In kind it is cell-based, mice. As to conditions: G79 100 ng/ml pre-treatment; 24 h after the challenge with LPS.
Description: as §1, with “The six-well plates were kept at 37° C. and under 5% CO2, and half the medium was replaced every 2 days. All the experiments were performed after 1 week of culture in such conditions.” left out
Organotypic slices collected from the LPS stimulation experiment were homogenized in RNA lysis buffer. […] Primers and target-specific fluorescence-labeled TaqMan probes were purchased from Applied Biosystems (TaqMan Gene Expression assays). […] The expression of the gene tested was quantified relative to the level of the housekeeping gene GAPDH.
(Quantitative PCR measures a nucleic acid by following its amplification.)

Regarding `CC(C)CN(CC(=O)N(CCCN1CCCC1=O)CC(N)=O)C(=O)CNCCc1ccccc1F` [Compound G79, [N-(2-(2′-Fluorophenyl)ethyl)glycyl]-[N-(2-methylpropyl)glycyl]-N-[3-(2′-oxopyrrolidinyl)propyl]glycinamide], the “production of TNFα compared to placebo” value in the assay with TNFα was “reduced at 6 and 12 hours”. In addition, the “release of IL-1β” value with IL-1β is on record as “did not affect the release of IL-1β”. In addition, the “STAT-1 phospho-activation (MFI) compared to unstimulated control” value in the assay on STAT-1 is given as “significantly activated at 6 h after G79 treatment (20 μg/ml)”. Moreover, the “HSP-27 phospho-activation (MFI) compared to unstimulated control” value in the assay on HSP-27 was “significantly activated at 1 h after G79 treatment (both at 20 μg/ml and 100 ng/ml)”. Further, in the assay on ATF-2, the “ATF-2 phospho-activation (MFI) compared to unstimulated control” value is on record as “significantly activated at 6 h after G79 treatment (20 μg/ml)”. In addition, in the assay on JNK, the “JNK phospho-activation (MFI) compared to unstimulated control” value is “significantly activated at 6 h after G79 treatment (both at 20 μg/ml and 100 ng/ml)”. Further, in the assay on iNOS, the “expression of iNOS compared to placebo pre-treated samples” value is “decrease in the expression of iNOS”.
